In patent publication US5385918A, “Aminomethylene-peptides as immunosuppressants” (Miles Inc., priority 1993, dated 1995):

Tests used:
FKBP = FKBP (Homo sapiens, UniProt P62942); assay: PPIase Inhibition Assay; assay type: biochemical; conditions: inhibition of PPIase activity of FKBP, substrate Succinyl-Ala-Phe-Pro-Phe-para-nitroanilide
Procedure: This assay follows in principle the procedure described in Kofron et al., 1991, Biochemistry 30:6127. The three main reagents used are PPIase, a substrate for PPIase, and a selected inhibitor compound of the present invention. The basic principle behind this assay is the conversion of the cis isomer of the substrate to the trans form, which conversion is catalyzed by PPIase. Essentially, inhibition of this PPIase activity is measured for the selected compounds. A peptide chymotrypsin substrate containing a proline in the P2 position is only cleaved by chymotrypsin when the Phe-Pro bond is in the trans isomeric configuration. In the presence of excess chymotrypsin, all of the trans peptide isomers are cleaved within approximately five seconds, leaving only cis forms.
The cis peptide will spontaneously convert to the trans isomer at a slow rate. The cis to trans conversion is catalyzed by isomerases at a much faster rate than this spontaneous conversion. Proteins with PPIase activity are examples of such isomerases. After isomerization, the peptide is cleaved by chymotrypsin releasing p-nitroaniline which can be monitored at 390 nm. The rate of release is then calculated using a first order rate plus offset equation utilizing the ENZFITTER program (Leatherbarrow, BIOSOFT, Cambridge, United Kingdom).
In a plastic cuvette are added 950 ul of ice cold assay buffer (25 mM HEPES, pH 7.8, 100 mM NaCl), 10 uL of FKBP (2.5 uM in 10 mM Tris-Cl pH 7.5, 100 mM NaCl, 1 mM dithiothreitol), 25 ul of chymotrypsin (50 mg/ml in 1 mM HCl) and 10 ul of the test compound at various concentrations in dimethyl sulphoxide. The reaction is initiated by addition of 5 ul of substrate (Succinyl-Ala-Phe-Pro-Phe-para-nitroanilide, 5 mg/ml in 235 mM LiCl in trifluoroethanol).
The absorbance at 390 nm versus time is monitored for 90 sec using a Beckman DU70 spectrophotometer. The absorbance versus time data files are transferred to an IBM XT computer and the rate constants determined using the commercial Enzfitter program. For each set of data, the uncatalyzed rate of conversion is measured and the uninhibited enzymatic rate determined. The data are expressed as % Inhibition and are calculated as follows: [formula] where kobs is the rate in the presence of a selected test compound, kuncat is the rate in the absence of enzyme, and kuninh is the rate in the presence of enzyme and absence of inhibitor. Data are plotted as percent inhibition versus concentration of inhibitor. The values of the concentration of inhibitor required for 50% inhibition of enzyme activity (IC50) were determined by nonlinear least squares regression analysis.

Lewis rats = assay: Adjuvant Arthritis Model in the Rat; assay type: in vivo; conditions: for % Inhibition: inhibition of swelling in uninjected limb vs vehicle control, 10 mg/kg/dose i.p.; for ΔAnkle Diameter: uninjected hind paw, day 0 to day 16, 10 mg/kg/dose i.p. on days -1, 0, 2, 5, 7, 9, 12 and 14
Procedure: Complete Freund's adjuvant is made by supplementing extra heavy mineral oil with 10 mg/ml heat killed Mycobacterium butyricum (Difco Laboratories, Detroit, Mich.). Lewis rats (Charles Rivers, Willmington, Mass.) are given a 0.1 ml injection of adjuvant (1 mg/animal mycobacterium) subcutaneously into the right hind footpad. In the injected foot, an acute inflammatory reaction occurs which is characterized by erythema, edema and a predominantly neutrophilic cell infiltrate. This is followed by edema in the uninjected contralateral foot by days 10-12. This secondary response is accompanied by a predominantly mononuclear cell infiltrate, indicating the presence of cell-mediated immunity.
The immune response is quantitated by measuring the change in ankle diameter of the uninjected hind paw from day 0 to day 16 post sensitization. This is accomplished using a hand-held dial micrometer. Animals are administered test drugs, suspended in a vehicle consisting of 5% polyethylene glycol and 0.5% Tween-80 (Sigma Chemical Co., St. Louis, Mo.) in phosphate buffered saline (GIBCO, Grand Island, N.Y.), i.p. on days -1, 0, 2, 5, 7, 9, 12 and 14. Several compounds when administered at 10 mg/kg/dose inhibited the swelling in the uninjected limb compared with the control groups that were sensitized with Complete Freund's Adjuvant but received only the vehicle i.p. (Table 4).

Chain of FKBP (P62942 whole entry): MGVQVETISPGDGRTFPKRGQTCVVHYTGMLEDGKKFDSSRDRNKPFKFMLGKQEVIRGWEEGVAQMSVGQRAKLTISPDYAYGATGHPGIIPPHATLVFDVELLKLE

Compound	IC50 (FKBP)	% Inhibition (Lewis rats)	ΔAnkle Diameter (Lewis rats)
CCC(C)[C@@H](CN1CCC[C@H]1C(=O)N[C@H](C(=O)NCc1ccccc1)[C@@H](C)CC)NC(=O)[C@@H](N)CC1CCCCC1 (stereo partly shown) [Example 8]	160 nM		
CC[C@H](C)[C@H](NC(=O)[C@@H]1CCCCN1C[C@@H](NC(=O)OC(C)(C)C)[C@@H](C)CC)C(=O)NCc1ccccc1 [Example 3, 1-[1-[2-(S)-[[(1,1-Dimethylethoxy)carbonyl]amino]-3-(S)-methylpentyl]-L-homoproline]-L-isoleucine Benzylamide]	5000 nM	30%	2.6 ± 0.4 mm
CCC(C)[C@@H](CN1CCC[C@H]1C(=O)N[C@H](C(=O)NCc1ccccc1)[C@@H](C)CC)NC(=O)[C@H](CC1CCCCC1)NC(=O)OC(C)(C)C (stereo partly drawn) [Example 7, 1-[1-[2-(S)-[[2-(S)-[[(1,1-Dimethylethoxy)carbonyl]amino]-1-oxo-3-cyclohexylpropyl]amino]-3-methylpentyl]-L-proline]-L-isoleucine Benzylamide]	130 nM		
CC[C@H](C)[C@H](NC(=O)[C@@H]1CCCN1C[C@H](CC1CCCCC1)NC(=O)OC(C)(C)C)C(=O)NCc1ccccc1 [Example 16, 1-[1-[2-(S)-[[(1,1-dimethylethoxy)carbonyl]amino]-3-cyclohexylpropyl]-L-proline]-L-isoleucine Benzylamide]	> 5000 nM		
CC[C@H](C)[C@H](NC(=O)[C@@H]1CCCCN1C[C@H](CC(C)C)NC(=O)OC(C)(C)C)C(=O)NCc1ccccc1 [Example 18, 1-[1-[2-(S)-[[(1,1-Dimethylethoxy)carbonyl]amino]-4-methylpentyl]-L-homoproline]-L-isoleucine Benzylamide]	1300 nM		
CC[C@H](C)[C@H](NC(=O)[C@@H]1CCCN1C[C@@H](NC(=O)OC(C)(C)C)[C@@H](C)CC)C(=O)NCc1ccccc1 [Example 6]	390 nM	4%	3.2 ± 0.3 mm

The next lines start with results.

IC50 (FKBP)	Compound	% Inhibition (Lewis rats)	ΔAnkle Diameter (Lewis rats)
< 50000 nM	CC[C@H](C)[C@H](NC(=O)[C@@H]1CCCN1C[C@H](CC(C)C)NC(=O)[C@H](CC(N)=O)NC(=O)[C@H](Cc1ccccc1)NC(=O)OC(C)(C)C)C(=O)OCc1ccccc1 [Example 14, 1-[1-[2-(S)-[[1-[1-[(1,1-Dimethylethoxy)carbonyl]-L-phenylalanyl]-L-asparaginyl]amino]-4-methylpentyl]-L-proline]-L-isoleucine Phenylmethyl Ester]		
470 nM	CC[C@H](C)[C@H](NC(=O)[C@@H]1CCCN1C[C@@H](NC(=O)OC(C)(C)C)C(C)C)C(=O)NCc1ccccc1 [Example 17, 1-[1-[2-(S)-[[(1,1-dimethylethoxy)carbonyl]amino]-3-methylbutyl]-L-proline] -L-isoleucine Benzylamide]		
5000 nM	CC[C@H](C)[C@@H](CN1CCCC[C@H]1C(=O)N[C@H](C(=O)NCc1ccccc1)[C@@H](C)OCc1ccccc1)NC(=O)OC(C)(C)C [Example 19, 1-[1-[2-(S)-[[(1,1-Dimethylethoxy)carbonyl]amino]-3-(S)-methylpentyl]-L-homoproline]-L-threonene(O-Benzyl Ether)Benzylamide]	43%	2.1 ± 0.6 mm
570 nM	CC[C@H](C)[C@H](NC(=O)[C@@H]1CCCN1C[C@H](CC(C)C)NC(=O)OC(C)(C)C)C(=O)NCc1ccccc1 [Example 2, 1-[1-[2-(S)-[[(1,1-Dimethylethoxy)carbonyl]amino]-4-methylpentyl]-L-proline]-L-isoleucine Benzylamide]		
